The subject of the experiment is Gaeumannomyces graminis var. tritici (Ggt). Kind of experiment: In vitro Assay: mycelial growth of Ggt on minimal media agar plates containing test compound. Type of experiment: cell-based. Particulars: dark, 19-20° C., 4 to 5 days, diameter of mycelial growth; for inhibition at 0.1 ppm / inhibition at 1 ppm / inhibition at 10 ppm: Gaeumannomyces graminis; for inhibition at 0.1 ppm: read-out: In vitro (ppm) 0.1, Percent Inhibition; for inhibition at 1 ppm: read-out: In vitro (ppm) 1, Percent Inhibition; for inhibition at 10 ppm: read-out: In vitro (ppm) 10, Percent Inhibition. As to the method:
The test compounds (0.25 mL of an appropriate stock solution in acetone) are incorporated into 25 mL minimal media agar [(prepared by autoclaving a solution of 17.5 g Czapek Dox broth (Difco), 7.5 g purified agar or Bacto-agar (Difco), and 500 mL distilled/deionized water, and then adding 50 μL of 1 mg/mL thiamine hydrochloride and 50 μL of 1 mg/mL biotin in 5% ethanol] and plates are prepared.
Each plate is inoculated by placing in a triangular shape three 4-mm plugs of Gaeumannomyces graminis var. tritici (Ggt) grown on the minimal media agar described above. The plates are incubated in the dark at 19-20° C. for 4 to 5 days. The growth of the fungus is measured as the diameter of the mycelial growth. The result is expressed as Percent Inhibition, calculated as [1-[(mm growth on treated plate −4)/(mm growth on control plate −4)]]×100.

For the molecule `C[Si](C)(C)c1ccc(F)c([Si](C)(C)C)c1C(=O)N1CCCC1` [Example 118, 1-[3-Fluoro-2,6-bis(trimethylsilyl)benzoyl]pyrrolidine], for the setting “0.1 ppm in minimal media agar”, the inhibition at 0.1 ppm was less than 0%. The inhibition at 1 ppm (1 ppm in minimal media agar) is less than 0%. For the same molecule, under “10 ppm in minimal media agar”, the inhibition at 10 ppm stood at 38%.

Take `Cc1ccccc1NC(=O)c1c(Br)cccc1[Si](C)(C)C` [Example 120, 2-Bromo-N-(2-methylphenyl)-6-(trimethylsilyl)benzamide]: the inhibition at 0.1 ppm (0.1 ppm in minimal media agar) is less than 0%. Where the note is “1 ppm in minimal media agar”, the inhibition at 1 ppm came to 26%. Under “10 ppm in minimal media agar”, the inhibition at 10 ppm was 100%.

As to `Cc1ccccc1NC(=O)c1ccccc1[Si](C)(C)C` [Example 121, N-(2-Methylphenyl)-2-(trimethylsilyl)benzamide], where the note is “0.1 ppm in minimal media agar”, the inhibition at 0.1 ppm amounted to 4%. Moreover, the inhibition at 1 ppm (1 ppm in minimal media agar) was determined as 8%. The inhibition at 10 ppm (10 ppm in minimal media agar) is 31%.

As for `CCNC(=O)c1c(Cl)cccc1-c1ccc2ccccc2c1` [Example 122, 2-Chloro-N-ethyl-6-(2-naphthalenyl)benzamide], the inhibition at 0.1 ppm (0.1 ppm in minimal media agar) is less than 0%. Further, the inhibition at 1 ppm (1 ppm in minimal media agar) was less than 0%. For the setting “10 ppm in minimal media agar”, the inhibition at 10 ppm is 67%.

Take `CCNC(=O)c1c(F)cccc1C1(C)CCCC1` [Example 123, N-Ethyl-2-fluoro-6-(1-methylcyclopentyl)benzamide]: where the note is “0.1 ppm in minimal media agar”, the inhibition at 0.1 ppm is 11%. Moreover, the inhibition at 1 ppm (1 ppm in minimal media agar) is 78%. For the setting “10 ppm in minimal media agar”, the inhibition at 10 ppm turned out to be 89%.

`CCNC(=O)c1ccncc1[Si](C)(C)C` [Example 124, N-Ethyl-3-(trimethylsilyl)-4-pyridinecarboxamide]: for the setting “0.1 ppm in minimal media agar”, the inhibition at 0.1 ppm is less than 0%. Moreover, the inhibition at 1 ppm (1 ppm in minimal media agar) was less than 0%. For the setting “10 ppm in minimal media agar”, the inhibition at 10 ppm was 62%.

Regarding `CCN(Cc1ccco1)C(=O)c1c(Cl)cccc1[Si](C)(C)C` [Example 125, 2-Chloro-N-ethyl-N-(2-furylmethyl)-6-(trimethylsilyl)benzamide], the inhibition at 0.1 ppm (0.1 ppm in minimal media agar) was less than 0%. For the setting “1 ppm in minimal media agar”, the inhibition at 1 ppm is less than 0%. The inhibition at 10 ppm (10 ppm in minimal media agar) worked out at 89%.

For the molecule `CC(C)N(C(=O)c1c(Cl)cccc1[Si](C)(C)C)C(C)C` [Example 126, 2-Chloro-N,N-bis(1-methylethyl)-6-(trimethylsilyl)benzamide], where the note is “0.1 ppm in minimal media agar”, the inhibition at 0.1 ppm was 15%. The inhibition at 1 ppm (1 ppm in minimal media agar) worked out at 4%. In addition, the inhibition at 10 ppm (10 ppm in minimal media agar) stood at 93%.

`CCN(COC)C(=O)c1c(C)cccc1[Si](C)(C)C` [Example 127, N-Ethyl-N-(methoxymethyl)-2-methyl-6-(trimethylsilyl)benzamide]: where the note is “0.1 ppm in minimal media agar”, the inhibition at 0.1 ppm is less than 0%. For the same molecule, where the note is “1 ppm in minimal media agar”, the inhibition at 1 ppm was 21%. The inhibition at 10 ppm (10 ppm in minimal media agar) amounted to 74%.

As for `CCOCCN(CC)C(=O)c1c(Cl)cccc1[Si](C)(C)C` [Example 128, 2-Chloro-N-(2-ethoxyethyl)-N-ethyl-6-(trimethylsilyl)benzamide], the inhibition at 0.1 ppm (0.1 ppm in minimal media agar) turned out to be 4%. Also, the inhibition at 1 ppm (1 ppm in minimal media agar) was found to be 8%. Further, where the note is “10 ppm in minimal media agar”, the inhibition at 10 ppm amounted to 50%.

`C[Si](C)(C)c1cccc(Cl)c1C(=O)NC1CCCCC1` [Example 129, 2-Chloro-N-cyclohexyl-6-(trimethylsilyl)benzamide]: the inhibition at 0.1 ppm (0.1 ppm in minimal media agar) worked out at 9%. For the same molecule, the inhibition at 1 ppm (1 ppm in minimal media agar) came out at 35%. Besides, under “10 ppm in minimal media agar”, the inhibition at 10 ppm came out at 26%.

For the molecule `CC1CCCC(C)N1C(=O)c1c(Cl)cccc1[Si](C)(C)C` (stereo not drawn) [Example 131, N-[2-Chloro-6-(trimethylsilyl)benzoyl]-2,6-dimethylpiperidine], the inhibition at 0.1 ppm (0.1 ppm in minimal media agar) is less than 0%. For the same molecule, for the setting “1 ppm in minimal media agar”, the inhibition at 1 ppm came out at 6%. Further, the inhibition at 10 ppm (10 ppm in minimal media agar) was found to be 3%.

Regarding `C[Si](C)(C)c1cccc(Cl)c1C(=O)NCc1ccccn1` [Example 135, 2-Chloro-N-(2-pyridinylmethyl)-6-(trimethylsilyl)benzamide], under “0.1 ppm in minimal media agar”, the inhibition at 0.1 ppm stood at 22%. Further, the inhibition at 1 ppm (1 ppm in minimal media agar) turned out to be 17%. Moreover, the inhibition at 10 ppm (10 ppm in minimal media agar) worked out at 39%.

Consider `COc1ccc(CNC(=O)c2c(Cl)cccc2[Si](C)(C)C)cc1` [Example 136, 2-Chloro-N-[(4-methoxyphenyl)methyl]-6-(trimethylsilyl)benzamide], for which the inhibition at 0.1 ppm (0.1 ppm in minimal media agar) is 3%. Moreover, the inhibition at 1 ppm (1 ppm in minimal media agar) was 26%. For the same molecule, where the note is “10 ppm in minimal media agar”, the inhibition at 10 ppm was found to be 100%.

As to `C[Si](C)(C)c1cccc(Cl)c1C(=O)NCc1ccc([N+](=O)[O-])cc1` [Example 137, 2-Chloro-N-[(4-nitrophenyl)-methyl]-6-(trimethylsilyl)-benzamide], the inhibition at 0.1 ppm (0.1 ppm in minimal media agar) worked out at 17%. Besides, the inhibition at 1 ppm (1 ppm in minimal media agar) came out at 61%. Moreover, for the setting “10 ppm in minimal media agar”, the inhibition at 10 ppm came out at 100%.

As to `C[Si](C)(C)c1cccc(Cl)c1C(=O)NCc1cccs1` [Example 138, 2-Chloro-N-(2-thienylmethyl)-6-(trimethylsilyl)benzamide], where the note is “0.1 ppm in minimal media agar”, the inhibition at 0.1 ppm was 14%. The inhibition at 1 ppm (1 ppm in minimal media agar) was 36%. Moreover, the inhibition at 10 ppm (10 ppm in minimal media agar) turned out to be 97%.

As for `COc1cccc(CNC(=O)c2c(Cl)cccc2[Si](C)(C)C)c1` [Example 139, 2-Chloro-N-[(3-methoxyphenyl)methyl]-6-(trimethylsilyl)benzamide], the inhibition at 0.1 ppm (0.1 ppm in minimal media agar) was 11%. Further, the inhibition at 1 ppm (1 ppm in minimal media agar) was 53%. For the same molecule, the inhibition at 10 ppm (10 ppm in minimal media agar) worked out at 100%.

As for `COc1cc(CNC(=O)c2c(Cl)cccc2[Si](C)(C)C)cc(OC)c1OC` [Example 140, 2-Chloro-N-[(3,4,5-trimethoxyphenyl)methyl]-6-(trimethylsilyl)benzamide], under “0.1 ppm in minimal media agar”, the inhibition at 0.1 ppm was 19%. The inhibition at 1 ppm (1 ppm in minimal media agar) was determined as 19%. Moreover, where the note is “10 ppm in minimal media agar”, the inhibition at 10 ppm is 81%.

Consider `C[Si](C)(C)c1cccc(Cl)c1C(=O)NCc1cccc([N+](=O)[O-])c1` [Example 141, 2-Chloro-N-[(3-nitrophenyl)-methyl]-6-(trimethylsilyl)-benzamide], for which the inhibition at 0.1 ppm (0.1 ppm in minimal media agar) came to 19%. Further, under “1 ppm in minimal media agar”, the inhibition at 1 ppm amounted to 64%. The inhibition at 10 ppm (10 ppm in minimal media agar) was 100%.

`C[Si](C)(C)c1cccc(Cl)c1C(=O)NCC#N` [Example 142, 2-Chloro-N-(cyanomethyl)-6-(trimethylsilyl)benzamide]: the inhibition at 0.1 ppm (0.1 ppm in minimal media agar) was less than 0%. Where the note is “1 ppm in minimal media agar”, the inhibition at 1 ppm was less than 0%. Also, under “10 ppm in minimal media agar”, the inhibition at 10 ppm worked out at 59%.

With `CCN(CO)C(=O)c1c(C)cccc1[Si](C)(C)C` [Example 143, N-Ethyl-N-(hydroxymethyl)-2-methyl-6-(trimethylsilyl)benzamide], the inhibition at 0.1 ppm (0.1 ppm in minimal media agar) turned out to be 5%. The inhibition at 1 ppm (1 ppm in minimal media agar) worked out at 13%. Where the note is “10 ppm in minimal media agar”, the inhibition at 10 ppm was 74%.

On to `C[Si](C)(C)c1cccc(Cl)c1C(=O)NCc1ccc2c(c1)OCO2` [Example 144, N-(1,3-benzodioxol-5-ylmethyl)-2-chloro-6-(trimethylsilyl)benzamide], for which the inhibition at 0.1 ppm (0.1 ppm in minimal media agar) is less than 0%. In addition, the inhibition at 1 ppm (1 ppm in minimal media agar) was found to be 11%. Moreover, the inhibition at 10 ppm (10 ppm in minimal media agar) came to 59%.

As to `C[Si](C)(C)c1cccc(Cl)c1C(=O)NCc1ccncc1` [Example 145, 2-Chloro-N-(4-pyridinylmethyl)-6-(trimethylsilyl)benzamide], the inhibition at 0.1 ppm (0.1 ppm in minimal media agar) was less than 0%. Where the note is “1 ppm in minimal media agar”, the inhibition at 1 ppm is less than 0%. Where the note is “10 ppm in minimal media agar”, the inhibition at 10 ppm was determined as 27%.

With `COCCNC(=O)c1c(Cl)cccc1[Si](C)(C)C` [Example 146, 2-Chloro-N-(2-methoxyethyl)-6-(trimethylsilyl)benzamide], the inhibition at 0.1 ppm (0.1 ppm in minimal media agar) was determined as 14%. Also, the inhibition at 1 ppm (1 ppm in minimal media agar) worked out at 65%. The inhibition at 10 ppm (10 ppm in minimal media agar) amounted to 84%.

As for `C=C(C)CNC(=O)c1c(Cl)cccc1[Si](C)(C)C` [Example 147, 2-Chloro-N-(2-methyl-2-propenyl)-6-(trimethylsilyl)benzamide], where the note is “0.1 ppm in minimal media agar”, the inhibition at 0.1 ppm is less than 0%. Besides, the inhibition at 1 ppm (1 ppm in minimal media agar) is less than 0%. Further, for the setting “10 ppm in minimal media agar”, the inhibition at 10 ppm was 58%.

`C[Si](C)(C)c1cccc(Cl)c1C(=O)N1CC=CCC1` [Example 148, 1-[2-Chloro-6-(trimethylsilyl)benzoyl]-1,2,3,6-(tetrahydro)pyridine]: the “In vitro (ppm) 0.1, Percent Inhibition” value (0.1 ppm in minimal media agar) is given as “N (If the calculation resulted in “0” or less, as compared to the untreated control, a “N” is shown to indicate no control.)”. Besides, the “In vitro (ppm) 1, Percent Inhibition” value (1 ppm in minimal media agar) is “N (If the calculation resulted in “0” or less, as compared to the untreated control, a “N” is shown to indicate no control.)”. Moreover, the “In vitro (ppm) 10, Percent Inhibition” value (10 ppm in minimal media agar) came to 53%.

On to `CC1C=CC(C)N1C(=O)c1c(Cl)cccc1[Si](C)(C)C` (stereo not drawn) [Example 149, 1-[2-Chloro-6-(trimethylsilyl)benzoyl)-2,5-dihydro-2,5-dimethyl-1H-pyrrole], for which the inhibition at 0.1 ppm (0.1 ppm in minimal media agar) is less than 0%. The inhibition at 1 ppm (1 ppm in minimal media agar) is less than 0%. For the same molecule, for the setting “10 ppm in minimal media agar”, the inhibition at 10 ppm came to 80%.

Take `CC(CO)NC(=O)c1c(Cl)cccc1[Si](C)(C)C` (stereo not drawn) [Example 154, 2-Chloro-N-(2-hydroxy-1-methylethyl)-6-(trimethylsilyl)benzamide]: where the note is “0.1 ppm in minimal media agar”, the inhibition at 0.1 ppm was less than 0%. Also, the inhibition at 1 ppm (1 ppm in minimal media agar) is less than 0%. For the same molecule, for the setting “10 ppm in minimal media agar”, the inhibition at 10 ppm worked out at 69%.

Turning to `CC(C)c1ccccc1NC(=O)c1c(Cl)cccc1[Si](C)(C)C` [Example 156, 2-Chloro-N-[2-(1-methylethyl)phenyl]-6-(trimethylsilyl)benzamide], the inhibition at 0.1 ppm (0.1 ppm in minimal media agar) was 9%. Further, for the setting “1 ppm in minimal media agar”, the inhibition at 1 ppm stood at 33%. The inhibition at 10 ppm (10 ppm in minimal media agar) amounted to 72%.

The values are drawn from patent US6410558B1, “Fungicides for the control of take-all disease of plants” (Monsanto Technology LLC, priority 1991, dated 2002).
